Tests used:
Assay type in all cases: cell-based, human
[1] = tested on: PDX1+/NKX6.1− cells derived from iPS cell line (585A1); test: Cell number count after Stage 3 culture with AT7867; details: 0.01 μM to 50 μM AT7867, 4 days, versus DMSO negative control (FIG. 2)
Procedure: (§1) The medium in the cell culture obtained in Stage 2-3 was changed to Improved MEM Zinc Option medium (15×10^4/ml) supplemented with 100 ng/ml KGF, 0.2 μM LDN193189, 50 ng/ml EGF (R&D systems, Inc.), indicated concentrations (0.01 μM to 50 μM) of AT7867 (Selleck Chemicals), 1% B-27 (DMSO as negative control) and the cells were further cultured for 4 days.

[2] = tested on: PDX1+ cells; test: Immunostaining with anti-PDX1 and anti-Ki67 antibodies in Stage 3; details: 1 μM AT7867, 1 to 4 days after addition in Stage 3 (FIG. 3)
Procedure: as §1

[3] = tested on: NKX6.1+ cells; test: Immunostaining with anti-NKX6.1 antibody after Stage 3; details: indicated concentrations of AT7867, after Stage 3 (FIG. 4A, 4B)
Procedure: as §1

[4] = tested on: PDX1+/NKX6.1+ cells; test: Double staining with anti-PDX1 and anti-NKX6.1 antibodies (flow cytometry) after Stage 3; details: addition of AT7867, after Stage 3 (FIGS. 5A and B)
Procedure: as §1

[5] = tested on: PDX1, PTF1A, and NKX6.1 genes; test: Quantitative PCR of PDX1, PTF1A and NKX6.1 gene expression during Stage 3; details: 1 μM AT7867, Day 0 to Day 4 of Stage 3, standardized with GAPDH, versus DMSO (FIG. 6)
Procedure: In Stage the cells were cultured in the presence of 1 μM AT7867. Cells were collected every day from Day 0 to Day 4 in Stage 3 and expression of PDX1, PTF1A, and NKX6.1 genes was measured by quantitative PCR. RNAs were extracted from the cells using RNeasy kit (Qiagen) and the reverse transcription reaction was performed with ReverTra Ace qPCR RT Master Mix (Toyobo) and oligo (dT) 20 primer. The quantitative PCR was performed with SYBR Premix Ex Taq II (Takara) using StepOnePlus™ Real-Time PCR System (Applied Biosystems). The gene expression was standardized with the expression of GAPDH gene and the relative gene expression was calculated from the relative standard curve (FIG. 6). […] PTF1A and NKX6.1 are transcription factors that indicate the differentiation of the cells into pancreatic bud cells

In the case of Clc1ccc(C2(c3ccc(-c4cn[nH]c4)cc3)CCNCC2)cc1 [AT7867], the “number of cells obtained in Stage 3” value [1] is reported as “increased in a manner dependent on the concentration of AT7867”, the “PDX1 status of proliferated (Ki67+) cells” value [2] is reported as “proliferated cells were positive for at least PDX1” and the “cells positive for at least NKX6.1” value [3] is reported as “increased in a manner dependent on the concentration of AT7867”. For the same compound, the “PDX1+/NKX6.1+ cells” value [4] was “increased by the addition of AT7867”, the “expression of NKX6.1” value [5] was “increased over time” and the “expression of PDX1” value [5] was “increased over time”. For the same compound, the “expression of PTF1A” value [5] was “increased over time”.

— US20180327719A1, “METHOD FOR PRODUCING PANCREATIC BUD CELLS” (Kyoto University, priority 2015, published 2018)
